# Measurements taken from publication PMC10466336, “Chemical Probe for Imaging of Polo-like Kinase 4 and Centrioles” (JACS Au, 2023).
# Experiments:
# [1] = target: T1, 6xHis-tagged Plk4 kinase domain (KD) (Homo sapiens, UniProt O00444); assay: Estimation of fluorescence increase (fluorogenicity) with Plk4 kinase domain versus BSA
# T1 construct: Plasmids encoding fragments of Plk4 kinase domain (2-275) with 6xHis-tag were cloned in pET system vectors; made in house; host or cells: E. coli BL21 gold (DE3)
# T1 sequence (O00444 2-275): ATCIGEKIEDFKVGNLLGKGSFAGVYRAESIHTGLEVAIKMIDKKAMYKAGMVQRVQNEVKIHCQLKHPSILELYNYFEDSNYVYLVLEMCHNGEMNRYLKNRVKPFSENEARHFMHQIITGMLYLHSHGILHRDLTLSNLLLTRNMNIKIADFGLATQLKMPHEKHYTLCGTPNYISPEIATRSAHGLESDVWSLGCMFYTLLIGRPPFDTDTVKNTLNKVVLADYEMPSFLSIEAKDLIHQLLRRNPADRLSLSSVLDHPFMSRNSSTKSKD
# Description: Moreover, we substituted the basic acetyl-piperazine nitrogen in compounds (1 and 2a) with an acetyl-piperidine, to avoid probe protonation and accumulation in endolysosomal compartments (Figure S1A, B).[23] This yielded a second generation of centrinone-based probes (compounds 2b–d). These probes were characterized first in vitro by measuring their fluorogenicity in the presence of the 6xHis-tagged Plk4 kinase domain (KD) (Table 1). […] Next, we measured the binding affinities of the probes to the Plk4 kinase domain via a competition binding assay based on fluorescence polarization. […]
# 1.3.5 Estimation of fluorescence increase
# The probes were analysed as described in Lukinavičius et al. 2014 1. Briefly, SiR650 or SiR595- […]
# purified Plk4 kinase domain (10 µM in 20 mM Tris, 200 mM NaCl at pH 7.5) or to a bovine serum albumin (BSA) (Sigma) solution (0.2 mg/mL in 20 mM Tris, 200 mM NaCl at pH 7.5). Final concentration of the probe was 3 µM. The samples were incubated for 1 h at 37 °C, and fluorescence was measured in a 96-well plate (Greiner Bio-One) on a plate reader (TECAN Spark® 20M).
# Fluorescence emission was recorded from 570 nm to 750 nm for SiR595 probes, and 630 nm to 750 nm for SiR650 while exciting at 550 nm ± 10 nm for SiR595 probes and at 610 ± 10 nm for SiR650 probes.
# A fluorescence excitation scan was recorded by measuring the emission at 660 ± 10 nm for SiR595 and 720 ± 10 nm for SiR650 probes, while exciting from 500 nm to 640 nm for SiR595 probes and from […]
# [2] = target: T2, GFP-Plk4(K41M) in transfected HeLa cells (Homo sapiens, UniProt O00444, K41M); assay: Live-cell confocal/STED imaging of overexpressed Plk4; type: cell-based; details: 500 nM, live-cell STED, HeLa GFP-Plk4(K41M), N = 5
# T2 construct: expressed in transfected cells; host or cells: HeLa
# T2 sequence (O00444 1-970 K41M): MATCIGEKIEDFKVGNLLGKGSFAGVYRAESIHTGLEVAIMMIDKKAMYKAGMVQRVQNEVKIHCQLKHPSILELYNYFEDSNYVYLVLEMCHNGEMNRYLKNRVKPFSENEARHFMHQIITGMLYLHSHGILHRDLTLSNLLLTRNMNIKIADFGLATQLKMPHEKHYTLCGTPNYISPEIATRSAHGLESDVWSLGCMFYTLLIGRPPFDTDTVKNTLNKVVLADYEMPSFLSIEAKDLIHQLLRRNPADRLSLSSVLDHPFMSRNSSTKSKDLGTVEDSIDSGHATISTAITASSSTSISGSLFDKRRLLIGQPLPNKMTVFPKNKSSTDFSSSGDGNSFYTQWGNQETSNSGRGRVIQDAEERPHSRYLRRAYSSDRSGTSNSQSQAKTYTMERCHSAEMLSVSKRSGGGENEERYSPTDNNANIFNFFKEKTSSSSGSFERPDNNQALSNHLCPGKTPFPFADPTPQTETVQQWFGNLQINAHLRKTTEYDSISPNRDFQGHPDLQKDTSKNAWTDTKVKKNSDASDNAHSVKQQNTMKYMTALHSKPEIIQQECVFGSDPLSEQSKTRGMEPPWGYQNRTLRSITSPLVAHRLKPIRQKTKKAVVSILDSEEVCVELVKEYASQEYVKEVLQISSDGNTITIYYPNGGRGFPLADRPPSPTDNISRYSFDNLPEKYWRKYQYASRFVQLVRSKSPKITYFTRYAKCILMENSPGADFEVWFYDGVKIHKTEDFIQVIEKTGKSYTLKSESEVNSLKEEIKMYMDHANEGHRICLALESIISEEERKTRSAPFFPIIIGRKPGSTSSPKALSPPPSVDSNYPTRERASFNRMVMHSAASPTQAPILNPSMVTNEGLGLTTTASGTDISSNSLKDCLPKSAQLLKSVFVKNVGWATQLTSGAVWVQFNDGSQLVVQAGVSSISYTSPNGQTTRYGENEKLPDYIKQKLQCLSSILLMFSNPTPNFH
smiles,measurement,setting,value
COc1c(Nc2cc(C)[nH]n2)nc(Sc2ccc(S(=O)(=O)Cc3cccc([N+](=O)[O-])c3F)cc2F)nc1N1CCC(CC(=O)NCCNC(=O)c2ccc(C(=O)O)c(C3=C4C=CC(=N)C=C4[Si](C)(C)c4cc(N)ccc43)c2)CC1 [2d],increase in fluorescence upon binding,[1]; in presence of Plk4 KD versus BSA,36 fold
same,FPIk4/FBSA,"[1]; mean of F(+Plk4KD)/F(+BSA) and standard deviation, N = 3, probe 3 µM, 1 h 37 °C",36 ± 1
same,diameter of the circular SiR595 signal,[2],373 ± 36 nm
